Laboratory results taken from patent EP0407586A1, “HUMAN MONOCLONAL ANTIBODY AND PROCESS FOR ITS PREPARATION” (TEIJIN LIMITED, priority 1988, dated 1990).

Tested on: reaction of the MCA produced by hybridoma 11-50 with human colon cancer cell line SW480
Assay: Inhibition of the reaction of the MCA with immobilized SW480 cells (ELISA)
Assay type: binding
Conditions: for IC50: SW480, read-out: IC50 (concentration of oligosaccharides inhibiting the bonding of MCA to the cancer cells by 50%)
Procedure: It was determined by the ELISA. As an antigen, 10 µg/ml asialofetuin (SIGMA) solution in 0.1 M borate buffer (pH 8.6) whose 100 ul was immobilized to each well of the Falcon microtest III plate (96 wells) was used. The supernatant of the hybridoma culture mixture was added to the plate with 50 µl every well and allowed to stand at room temperature for 1 hour. The wells were washed with 1 % bovine serum albumin (abbreviated to BSA hereinafter)-containing Hanks' buffer salt solution (abbreviated to HBSS-B) 3 times, then 100 µl of 0.6 mg/ml p-nitrophenyl phosphate solution in 1 M diethanolamine + 1 mM MgCl2 (pH 9.8) were added. After 30 to 60 minutes, the absorbance at 405 nm wavelength was measured to select the hybridomas with antibody activity.
Fifty microliters of 30-fold diluted culture supernatant of hybridoma 11-50 with HBSS-B and fifty microliters of a variety of protein solutions diluted stepwise with HBSS-B (described in Table 3) were mixed beforehand, then 50 µl of the mixture was added to a -96-well plate to which human colon cancer cell line SW480 had been immobilized with glutaraldehyde, then allowed to stand at room temperature for 1 hour. The following procedures were done according to the method described in Example 1-(3).
Inhibitory activity in % = [1 - (A405 in the presence of an inhibitor)/(A405-in the absence of an inhibitor)]
Various kinds of oligosaccharides (listed in Table 4) were diluted stepwise with HBSS-B and the solutions were used to conduct the evaluation according to the method ,described in Example 4-(1).

O=C[C@H](O)[C@@H](O)[C@H](O[C@@H]1O[C@H](CO)[C@@H](O)[C@H](O)[C@H]1O)[C@H](O)CO [Cellobiose, Galβ1→4Glc]
IC50: > 50 mM

CO[C@H]1O[C@H](CO)[C@H](O)[C@H](O[C@@H]2O[C@H](CO)[C@H](O)[C@H](O)[C@H]2O)[C@H]1NC(C)=O [Galβ1→3GalNAcα1-OMe]
IC50: 2.8 mM

CO[C@@H]1O[C@H](CO)[C@@H](O[C@@H]2O[C@H](CO)[C@H](O)[C@H](O)[C@H]2O)[C@H](O)[C@H]1NC(C)=O [Galβ1→4GlcNAcβ1-OMe]
IC50: > 5 mM

CC(=O)N[C@H]1[C@H](O[C@H]2[C@@H](O)[C@@H](CO)O[C@@H](O[C@H]3[C@H](O)[C@@H](O)C(O)O[C@@H]3CO)[C@@H]2O)O[C@H](CO)[C@@H](O)[C@@H]1O[C@@H]1O[C@H](CO)[C@H](O)[C@H](O)[C@H]1O (stereo partly drawn) [Lacto-N-tetraose, Galβ1→3GlcNAcβ1→3Galβ1→4Glc]
inhibitory action of oligosaccharides (SW480, result in words): strongest inhibition | IC50: 0.68 mM

OC[C@H]1O[C@@H](O[C@H]2[C@H](O)[C@@H](O)C(O)O[C@@H]2CO)[C@H](O)[C@@H](O)[C@H]1O (stereo partly drawn) [Lactose, Galβ1→4Glc]
IC50: 21 mM
